In patent publication US8859620B2, “Phthalanilate compounds and methods of use” (University of Notre Dame du Lac, priority 2009, dated 2014):
≈ marks a conversion by molar mass, not a printed value. Where two headings read alike, the source gives them in different places. Each block holds one compound with its values, some of them ahead of it.

How the values were obtained:
[1] = target: OXA-10 (class D β-lactamase) (Pseudomonas aeruginosa, UniProt P14489); assay: β-Lactamase assay (nitrocefin colour change), OXA-10; format: biochemical; details: for OXA-10: Table 10, class symbols x/xx/xxx, key not given
Protocol: (§1) β-Lactamase Assays (TEM-1, P99, and OXA-10): The activity of the compounds of the invention (inhibitors) toward β-lactamases was evaluated using 96 well plates. The reaction mixture included 10 mM sodium phosphate, pH 7.0, 150 mM sodium chloride, 0.01% Triton X-100, 100 μM nitrocefin, 10 nM of β-lactamases (class A: TEM-1; class C: P99, or class D: OXA-10), and variable concentrations of the inhibitors in a total volume of 100 μL. β-Lactamases were pre-incubated with the compounds at room temperature for 5 minutes, and the assay was initiated by the addition of nitrocefin. The inhibition of the enzyme activity by the compounds was determined by monitoring color change (from yellow to red) of nitrocefin after 20 minutes. Stock solutions of the compounds were prepared in dimethyl sulfoxide (DMSO). No more than 5% DMSO was present in assays, unless noted otherwise. B1aR Assay: The surface domain of B1aR (1 μM) was added to each inhibitor (at various concentrations) in 100 mM sodium phosphate, 50 mM sodium bicarbonate, at pH 7.0. The reaction mixtures were incubated at room temperature for 20 minutes. BOCILLIN FL, a fluorogenic ligand, was added to a concentration of 20 μM in a final volume of 20 μL. The mixtures were incubated at 37° C. for 5 minutes, at which point the reactions were quenched by the addition of 15 μL of the SDS sample buffer (125 mM Tris, 4% SDS, 20% glycerol, 2% 2-mercaptoethanol, pH 6.8), and were boiled for 4 minutes. The samples were loaded onto 15% SDS-PAGE, the gel was developed and scanned using a Storm 840® Fluorimager. The fluorescent bands of BOCILLIN FL-labeled B1aR^S were analyzed by Image Quant 5.2 software. PBP2 Assay: The PBP2 assay was performed according to the methods of Villegas-Esterada et al. (J. Am. Chem. Soc. 2008, 130, 9212-9213).

[2] = tested on: S. aureus NRS100 (Mec^R); assay: MIC against S. aureus NRS100 (Table 14); format: cell-based, Staphylococcus aureus; details: for MIC: compounds dissolved in DMSO or 1% sodium carbonate; for inhibitory activity (in words): Table 14
Protocol: The recited compounds were dissolved in DMSO or in 1% sodium carbonate and transferred into micro titer plate to final concentration of 1000 μg/mL.

[3] = tested on: S. aureus NRS11 (Mec^S); assay: MIC against S. aureus NRS11 (Table 13); format: cell-based, Staphylococcus aureus; details: for MIC: compounds dissolved in DMSO or 1% sodium carbonate; for inhibitory properties (in words): Table 13
Protocol: All recited compounds were dissolved in DMSO or in 1% sodium carbonate and transferred to micro titer plates to final concentrations of 1000 μg/mL.

[4] = target: TEM-1 (class A β-lactamase) (Escherichia coli, UniProt P62593); assay: β-Lactamase assay (nitrocefin colour change), TEM-1; format: biochemical; details: for TEM-1: Table 10, class symbols x/xx/xxx, key not given
Protocol: as §1

[5] = target: P99 (class C β-lactamase) (Enterobacter cloacae, UniProt P05364); assay: β-Lactamase assay (nitrocefin colour change), P99; format: biochemical; details: for P99: Table 10, class symbols x/xx/xxx, key not given
Protocol: as §1

[6] = Staphylococcus aureus, read-out: MIC

TEM-1 (class A β-lactamase), sequence (P62593 24-286 limits assumed): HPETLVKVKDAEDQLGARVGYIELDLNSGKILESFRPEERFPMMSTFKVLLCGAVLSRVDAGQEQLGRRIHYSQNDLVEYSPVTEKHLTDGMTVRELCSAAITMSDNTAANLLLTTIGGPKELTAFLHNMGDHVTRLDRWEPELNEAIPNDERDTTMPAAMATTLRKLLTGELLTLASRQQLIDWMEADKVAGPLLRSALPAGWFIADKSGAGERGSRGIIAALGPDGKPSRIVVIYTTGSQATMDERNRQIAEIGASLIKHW
P99 (class C β-lactamase), sequence (P05364 21-381): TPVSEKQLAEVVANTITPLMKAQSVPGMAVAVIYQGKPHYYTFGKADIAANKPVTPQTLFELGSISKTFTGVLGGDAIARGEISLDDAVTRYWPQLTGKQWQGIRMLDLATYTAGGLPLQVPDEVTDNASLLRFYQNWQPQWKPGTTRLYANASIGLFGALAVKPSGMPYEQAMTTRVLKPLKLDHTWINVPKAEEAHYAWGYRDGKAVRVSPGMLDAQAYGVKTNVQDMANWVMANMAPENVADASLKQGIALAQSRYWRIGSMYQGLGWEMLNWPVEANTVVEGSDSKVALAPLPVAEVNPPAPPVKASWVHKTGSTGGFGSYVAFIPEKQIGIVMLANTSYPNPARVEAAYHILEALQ
OXA-10 (class D β-lactamase), sequence (P14489 20-266, species assumed): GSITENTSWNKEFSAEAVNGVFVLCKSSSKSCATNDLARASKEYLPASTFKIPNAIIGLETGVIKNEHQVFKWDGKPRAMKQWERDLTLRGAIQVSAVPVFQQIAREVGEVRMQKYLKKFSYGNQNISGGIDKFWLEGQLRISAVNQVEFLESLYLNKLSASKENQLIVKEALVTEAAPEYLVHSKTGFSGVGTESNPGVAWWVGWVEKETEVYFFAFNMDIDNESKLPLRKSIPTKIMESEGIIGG

- OXA-10 [1]: xx
SMILES: O=C(O)c1c(Cl)c(Cl)c(Cl)c(Cl)c1C(=O)Nc1ccc(CO)cc1 [Compound 254]

SMILES: CCCCCCCCOc1ccc(N2C(=O)c3c(Br)c(Br)c(Br)c(Br)c3C2=O)cc1 [Compound 230]
- MIC [2, 6]: > 16 mg/L

- MIC [3]: 128 µg/mL (≈ 323 µM)
- MIC [2]: 128 mg/L (≈ 323 µM)
SMILES: Cc1ccccc1COc1ccc(NC(=O)c2ccccc2C(=O)O)cc1Cl [Compound 383]

SMILES: O=C(Nc1ccc(Cl)c(C(F)(F)F)c1)c1cccc([N+](=O)[O-])c1C(=O)O [Compound 86]
- TEM-1 [4]: xx

- MIC [3]: 2,000 μg/mL
- MIC [2]: 2,000 μg/mL
SMILES: CCCCOC(=O)c1ccc(NC(=O)N(C)c2ccccc2C(=O)O)cc1 [Compound 326]

- MIC [3]: 500 µg/mL (≈ 1020 µM)
- MIC [2]: 500 mg/L (≈ 1020 µM)
SMILES: O=C(O)c1c(F)c(F)c(F)c(F)c1C(=O)Nc1ccc(OCC(O)COCC2CC2)c(Cl)c1 (stereo not drawn) [Compound 354]

SMILES: O=C(O)c1c(Br)c(Br)c(Br)c(Br)c1C(=O)Nc1cccc(C(F)(F)F)c1 [Compound 196]
- TEM-1 [4]: xx
- P99 [5]: xx

- MIC [3]: 2,000 μg/mL
- MIC [2]: 2,000 μg/mL
SMILES: CC(C)C[C@@H](C(=O)O)C(C(=O)O)C(=O)OC(C)(C)C (stereo partly drawn) [Compound 330]

SMILES: N#Cc1cccc(NC(=O)c2c(Br)c(Br)c(Br)c(Br)c2C(=O)[O-])c1.[Na+] [Compound 201]
- OXA-10 [1]: xx
- TEM-1 [4]: xx
- P99 [5]: xxx

- MIC [3]: 500 µg/mL (≈ 1130 µM)
- MIC [2]: 500 mg/L (≈ 1130 µM)
SMILES: CC(Oc1ccc(NC(=O)c2c(C(=O)O)cccc2[N+](=O)[O-])cc1Cl)c1ccccc1 (stereo not drawn) [Compound 391]

- MIC [3]: 500 µg/mL (≈ 1270 µM)
- MIC [2]: 500 mg/L (≈ 1270 µM)
SMILES: O=C(O)c1cccc([N+](=O)[O-])c1C(=O)Nc1ccc(OCc2ccccc2)nc1 [Compound 392]

SMILES: O=C(O)c1c(Br)c(Br)c(Br)c(Br)c1C(=O)Nc1ccc(Cl)c(C(F)(F)F)c1 [Compound 89]
- OXA-10 [1]: xxx
- TEM-1 [4]: xx
- P99 [5]: xxx

- OXA-10 [1]: xxx
SMILES: CCCCCCCCOc1ccc(N(C)C(=O)c2c(Br)c(Br)c(Br)c(Br)c2C(=O)O)cc1 [Compound 307]

- MIC [3, 6]: > 2000 µg/mL
- MIC [2, 6]: > 2000 mg/L
SMILES: CCCCCCCCOc1ccc(NC(=O)c2ccccc2C(=O)O)c[n+]1[O-] [Compound 357]

- MIC [3, 6]: 500 µg/mL (≈ 723 µM)
- MIC [2, 6]: 500 mg/L (≈ 723 µM)
SMILES: COCCOCCOc1ccc(NC(=O)c2c(Br)c(Br)c(Br)c(Br)c2C(=O)O)c[n+]1[O-] [Compound 410]

- MIC [3]: 256 µg/mL (≈ 718 µM)
- MIC [2]: 256 mg/L (≈ 718 µM)
SMILES: CCCCOC(=O)c1ccc(NC(=O)Nc2ccccc2C(=O)O)cc1 [Compound 325]

- MIC [3]: >2,000 μg/mL
- MIC [2]: >2,000 μg/mL
SMILES: COCCOCCOc1ccc(NC(=O)c2c(Br)c(Br)c(Br)c(Br)c2C(=O)O)cn1 [Compound 403]

SMILES: O=C1c2c(Br)c(Br)c(Br)c(Br)c2C(=O)N1c1ccc(OCc2ccccc2)c(Cl)c1 [Compound 227]
- OXA-10 [1]: xxx
- TEM-1 [4]: xxx

SMILES: O=C(O)c1c(Br)c(Br)c(Br)c(Br)c1C(=O)Nc1ccc(CO)cc1 [Compound 223]
- OXA-10 [1]: xxx
- TEM-1 [4]: xxx
- P99 [5]: xxx

- MIC [2, 6]: 250 mg/L (≈ 536 µM)
SMILES: O=C(O)c1cccnc1C(=O)Nc1ccc(OCc2cccc(OC(F)(F)F)c2)c(Cl)c1 [Compound 423]

SMILES: O=C(O)c1c(Cl)c(Cl)c(Cl)c(Cl)c1C(=O)Nc1ccc(OCc2cccc(C(F)(F)F)c2)c(Cl)c1 [Compound 389]
- OXA-10 [1]: xxx
- IC50 ([1]; nitrocefin 100 μM, 10 nM enzyme, 5 min pre-incubation, read-out: IC50s OXA-10): 44.2 ± 3.4 µM
- IC50 [4]: 4.5 ± 0.4 µM
- TEM-1 [4]: xxx
- MIC [3, 6]: < 8 µg/mL
- inhibitory properties (in words) [3]: significant inhibitory properties
- P99 [5]: xxx
- IC50 ([5]; nitrocefin 100 μM, 10 nM enzyme, 5 min pre-incubation, read-out: IC50s P99): 20.2 ± 3 µM
- MIC [2, 6]: < 8 mg/L
- inhibitory activity (in words) [2]: significant inhibitory activity

SMILES: CC(Oc1ccc(NC(=O)c2c(Cl)c(Cl)c(Cl)c(Cl)c2C(=O)O)cc1Cl)c1ccccc1 (stereo not drawn) [Compound 381]
- OXA-10 [1]: xxx
- MIC [3, 6]: 16 µg/mL (≈ 30 µM)
- inhibitory properties (in words) [3]: significant inhibitory properties
- MIC [2, 6]: 32 mg/L (≈ 60 µM)
- inhibitory activity (in words) [2]: significant inhibitory activity

- MIC [3]: 2,000 μg/mL
- MIC [2]: 2,000 μg/mL
SMILES: CCCCOC(=O)c1ccc(NC(=O)C2CCC(C)CC2C(=O)O)cc1 (stereo not drawn) [Compound 337]

- MIC [3, 6]: 256 µg/mL (≈ 691 µM)
- MIC [2, 6]: 256 mg/L (≈ 691 µM)
SMILES: CCCCCCCCOc1ccc(NC(=O)c2ccccc2C(=O)O)cn1 [Compound 343]
